# Test results reported in patent US9340590B2 (priority 2011, dated 2016).
# Like-named read-outs stand apart in the source and are kept apart here. Positions of bridges follow the written chain, without caps; N, C: chain ends. Non-standard residues stand in square brackets, D forms with d. Residues, ends and D or L forms follow the SMILES beside them. Phe(4-NH2) = Nc1ccc(C[C@H](N)C(=O)O)cc1; Phe(4-I) = N[C@@H](Cc1ccc(I)cc1)C(=O)O; Phg = N[C@H](C(=O)O)c1ccccc1
# Legend:
# Assay in all cases: cell-based
# hNav1.3 = hNav1.3 (Homo sapiens, UniProt Q9NY46); conditions: IonWorks Quattro, read-out: IWQ Use Nav1.3
# hNav1.7 = hNav1.7 (Homo sapiens, UniProt Q15858); type: cell-based; conditions: IonWorks Quattro, read-out: IWQ Use Nav1.7
# hNav1.5 = hNav1.5 (Homo sapiens, UniProt Q14524); conditions: IonWorks Quattro, read-out: IWQ Use Nav1.5
# [1] = clamped to −110 mV, depolarized to −10 mV, 5 min after compound, n=2
# hNav1.3, sequence (Q9NY46 whole entry, looked up): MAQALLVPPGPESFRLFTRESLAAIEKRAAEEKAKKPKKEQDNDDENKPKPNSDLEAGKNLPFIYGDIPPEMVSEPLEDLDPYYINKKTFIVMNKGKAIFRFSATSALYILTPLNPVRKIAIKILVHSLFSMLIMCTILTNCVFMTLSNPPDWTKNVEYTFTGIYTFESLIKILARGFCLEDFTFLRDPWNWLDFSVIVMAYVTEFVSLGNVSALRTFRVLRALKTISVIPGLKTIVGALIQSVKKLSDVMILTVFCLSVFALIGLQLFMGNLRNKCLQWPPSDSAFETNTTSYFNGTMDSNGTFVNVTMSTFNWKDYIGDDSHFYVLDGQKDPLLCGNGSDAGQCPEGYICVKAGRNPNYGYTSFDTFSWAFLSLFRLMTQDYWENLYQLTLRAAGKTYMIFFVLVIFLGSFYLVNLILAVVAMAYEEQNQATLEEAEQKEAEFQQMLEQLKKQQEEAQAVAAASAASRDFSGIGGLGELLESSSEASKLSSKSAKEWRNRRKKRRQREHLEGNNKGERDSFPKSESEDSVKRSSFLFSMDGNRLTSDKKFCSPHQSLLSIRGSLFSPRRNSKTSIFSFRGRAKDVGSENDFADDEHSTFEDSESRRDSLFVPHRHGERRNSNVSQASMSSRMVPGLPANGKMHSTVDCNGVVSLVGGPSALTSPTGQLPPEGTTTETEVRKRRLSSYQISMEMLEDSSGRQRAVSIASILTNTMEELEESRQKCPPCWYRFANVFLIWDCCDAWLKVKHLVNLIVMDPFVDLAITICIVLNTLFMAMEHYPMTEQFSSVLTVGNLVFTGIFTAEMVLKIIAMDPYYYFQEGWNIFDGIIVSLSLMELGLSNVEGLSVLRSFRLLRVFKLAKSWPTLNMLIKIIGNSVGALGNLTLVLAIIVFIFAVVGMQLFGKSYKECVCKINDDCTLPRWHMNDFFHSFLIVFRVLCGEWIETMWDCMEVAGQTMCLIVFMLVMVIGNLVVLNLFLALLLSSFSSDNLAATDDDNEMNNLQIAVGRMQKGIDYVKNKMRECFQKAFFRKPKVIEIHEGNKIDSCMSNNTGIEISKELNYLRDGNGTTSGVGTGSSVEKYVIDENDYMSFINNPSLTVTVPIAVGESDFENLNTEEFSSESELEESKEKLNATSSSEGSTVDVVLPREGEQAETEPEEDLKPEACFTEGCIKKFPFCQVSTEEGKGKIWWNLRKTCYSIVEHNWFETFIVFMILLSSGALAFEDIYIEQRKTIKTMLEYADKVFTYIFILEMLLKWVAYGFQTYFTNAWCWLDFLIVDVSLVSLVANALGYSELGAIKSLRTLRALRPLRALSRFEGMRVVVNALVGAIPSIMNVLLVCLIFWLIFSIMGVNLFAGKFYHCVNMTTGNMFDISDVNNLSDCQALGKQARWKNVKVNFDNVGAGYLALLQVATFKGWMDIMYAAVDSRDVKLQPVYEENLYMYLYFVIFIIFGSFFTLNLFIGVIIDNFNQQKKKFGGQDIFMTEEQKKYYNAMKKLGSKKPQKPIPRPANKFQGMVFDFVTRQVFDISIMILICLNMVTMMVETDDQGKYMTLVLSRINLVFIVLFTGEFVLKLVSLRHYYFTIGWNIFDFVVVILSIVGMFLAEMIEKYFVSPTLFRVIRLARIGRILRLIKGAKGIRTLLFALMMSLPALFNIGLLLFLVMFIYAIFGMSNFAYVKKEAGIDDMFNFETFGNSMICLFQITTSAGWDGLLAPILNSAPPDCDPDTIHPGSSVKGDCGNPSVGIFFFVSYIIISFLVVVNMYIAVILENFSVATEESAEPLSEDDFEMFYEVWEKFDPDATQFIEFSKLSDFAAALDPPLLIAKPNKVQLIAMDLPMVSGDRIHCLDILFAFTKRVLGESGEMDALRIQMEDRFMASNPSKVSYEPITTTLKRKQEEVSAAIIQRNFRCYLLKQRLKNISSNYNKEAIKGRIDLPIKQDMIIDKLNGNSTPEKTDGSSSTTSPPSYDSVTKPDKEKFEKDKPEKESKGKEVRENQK
# hNav1.5, sequence (Q14524 whole entry, looked up): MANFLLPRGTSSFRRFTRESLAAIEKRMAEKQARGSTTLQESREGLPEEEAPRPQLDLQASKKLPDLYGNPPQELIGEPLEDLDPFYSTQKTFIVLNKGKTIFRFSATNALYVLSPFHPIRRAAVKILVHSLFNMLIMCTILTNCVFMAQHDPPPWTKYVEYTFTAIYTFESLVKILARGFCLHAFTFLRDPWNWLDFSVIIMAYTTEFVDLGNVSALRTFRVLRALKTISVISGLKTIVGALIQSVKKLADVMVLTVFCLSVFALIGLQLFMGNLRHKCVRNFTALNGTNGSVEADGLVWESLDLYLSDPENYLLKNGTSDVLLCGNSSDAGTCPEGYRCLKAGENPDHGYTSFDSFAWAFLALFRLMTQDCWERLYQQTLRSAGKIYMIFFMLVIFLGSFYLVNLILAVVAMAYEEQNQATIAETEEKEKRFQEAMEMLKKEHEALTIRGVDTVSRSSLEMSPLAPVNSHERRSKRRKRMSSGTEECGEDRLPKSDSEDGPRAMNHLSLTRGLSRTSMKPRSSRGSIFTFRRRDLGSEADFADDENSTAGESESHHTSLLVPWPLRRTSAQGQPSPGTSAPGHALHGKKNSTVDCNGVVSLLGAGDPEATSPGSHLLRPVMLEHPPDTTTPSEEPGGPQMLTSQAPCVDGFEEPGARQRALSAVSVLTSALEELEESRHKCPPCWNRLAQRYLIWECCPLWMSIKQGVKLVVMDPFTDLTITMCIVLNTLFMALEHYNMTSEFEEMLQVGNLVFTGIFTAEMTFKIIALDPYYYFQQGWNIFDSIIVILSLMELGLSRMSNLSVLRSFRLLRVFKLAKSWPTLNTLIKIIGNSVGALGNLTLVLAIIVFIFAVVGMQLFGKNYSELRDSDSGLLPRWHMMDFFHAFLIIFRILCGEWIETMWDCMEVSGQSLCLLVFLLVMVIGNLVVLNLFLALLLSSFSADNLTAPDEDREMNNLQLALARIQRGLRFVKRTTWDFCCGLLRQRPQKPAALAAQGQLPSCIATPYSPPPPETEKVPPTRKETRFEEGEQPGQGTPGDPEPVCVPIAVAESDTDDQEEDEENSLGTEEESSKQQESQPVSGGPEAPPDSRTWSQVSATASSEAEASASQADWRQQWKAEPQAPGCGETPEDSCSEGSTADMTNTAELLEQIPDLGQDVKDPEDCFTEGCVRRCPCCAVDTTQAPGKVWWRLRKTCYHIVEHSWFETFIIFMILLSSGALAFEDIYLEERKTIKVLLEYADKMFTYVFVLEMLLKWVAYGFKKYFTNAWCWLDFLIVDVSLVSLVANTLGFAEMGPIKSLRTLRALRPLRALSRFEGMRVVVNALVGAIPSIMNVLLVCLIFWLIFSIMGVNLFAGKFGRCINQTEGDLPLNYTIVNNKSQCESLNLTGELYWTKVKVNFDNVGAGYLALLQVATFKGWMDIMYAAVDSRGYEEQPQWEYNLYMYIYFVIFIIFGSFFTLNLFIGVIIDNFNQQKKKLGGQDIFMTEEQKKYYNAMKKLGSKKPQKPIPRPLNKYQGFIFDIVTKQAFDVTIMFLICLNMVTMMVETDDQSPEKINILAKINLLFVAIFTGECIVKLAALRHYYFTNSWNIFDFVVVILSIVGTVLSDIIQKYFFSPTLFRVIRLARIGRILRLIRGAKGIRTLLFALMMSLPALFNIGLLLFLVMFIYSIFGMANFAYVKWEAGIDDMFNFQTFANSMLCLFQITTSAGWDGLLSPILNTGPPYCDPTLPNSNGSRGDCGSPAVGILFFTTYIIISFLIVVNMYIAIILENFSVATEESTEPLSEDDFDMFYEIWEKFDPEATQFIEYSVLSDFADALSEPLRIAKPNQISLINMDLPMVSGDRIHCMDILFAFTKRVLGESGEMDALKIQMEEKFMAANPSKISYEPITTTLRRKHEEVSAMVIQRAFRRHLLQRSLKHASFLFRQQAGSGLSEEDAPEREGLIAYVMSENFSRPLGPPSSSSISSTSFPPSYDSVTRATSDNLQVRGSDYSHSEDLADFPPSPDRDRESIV
structure (smiles),measurement,setting,value
"CC[C@H](C)[C@@H]1NC(=O)[C@@H]2CSSC[C@@H]3NC(=O)[C@H](C(C)C)NC(=O)[C@H](CC(C)C)NC(=O)[C@H](CC(N)=O)NC(=O)[C@@H]4CCCN4C(=O)[C@H](CCCNC(=N)N)NC(=O)[C@H](CSSC[C@H](NC(=O)[C@@H](N)CC(=O)O)C(=O)N[C@@H](CC(C)C)C(=O)NCC(=O)N[C@@H](C)C(=O)N[C@@H](CCSC)C(=O)N[C@@H](CCCNC(=N)N)C(=O)N[C@@H](CCCCN)C(=O)N2)NC(=O)[C@H](CSSC[C@@H](C(=O)N[C@@H](CCCCN)C(=O)N[C@@H](Cc2ccc(O)cc2)C(=O)N[C@H](C(=O)N[C@@H](Cc2ccccc2)C(N)=O)C(C)C)NC(=O)[C@H](Cc2c[nH]c4ccccc24)NC(=O)[C@H](Cc2ccc(N)cc2)NC(=O)[C@H](Cc2c[nH]cn2)NC(=O)[C@H]([C@@H](C)O)NC(=O)[C@H](CCCNC(=N)N)NC(=O)[C@H](CO)NC3=O)NC(=O)[C@H](CCCCN)NC(=O)[C@H](CC(=O)O)NC(=O)[C@H](CC(N)=O)NC(=O)[C@H](CC(=O)O)NC(=O)[C@@H]2CCCN2C1=O [compound 741] (H-DCLGAMRKCIPDNDKCCRPNLVCSRTH[Phe(4-NH2)]WCKYVF-NH2; disulfide 2-17, 9-23, 16-30)",IC50,"hNav1.3; use-dependent block, hNav1.3",2.3 µM
same,IC50,"hNav1.7; use-dependent block, hNav1.7",1.1 µM
same,IC50,"hNav1.5; use-dependent block, hNav1.5",24.4 µM
"CC[C@H](C)[C@@H]1NC(=O)[C@@H]2CSSC[C@@H]3NC(=O)[C@H](C(C)C)NC(=O)[C@H](CC(C)C)NC(=O)[C@H](CCCCN)NC(=O)[C@@H]4CCCN4C(=O)[C@H](CCCNC(=N)N)NC(=O)[C@H](CSSC[C@H](NC(=O)[C@@H](N)CC(=O)O)C(=O)N[C@@H](CC(C)C)C(=O)NCC(=O)N[C@@H](Cc4ccccc4)C(=O)N[C@@H](CCSC)C(=O)N[C@@H](CCCNC(=N)N)C(=O)N[C@@H](CCCCN)C(=O)N2)NC(=O)[C@H](CSSC[C@@H](C(=O)N[C@@H](CCCCN)C(=O)N[C@@H](Cc2ccc(O)cc2)C(=O)N[C@H](C(=O)N[C@@H](Cc2ccccc2)C(N)=O)C(C)C)NC(=O)[C@H](Cc2c[nH]c4ccccc24)NC(=O)[C@H](CCCCN)NC(=O)[C@H](Cc2cnc[nH]2)NC(=O)[C@H]([C@@H](C)O)NC(=O)[C@H](CCCNC(=N)N)NC(=O)[C@H](CO)NC3=O)NC(=O)[C@H](CCCCN)NC(=O)[C@H](CC(=O)O)NC(=O)[C@H](CC(N)=O)NC(=O)[C@H](CC(=O)O)NC(=O)[C@@H]2CCCN2C1=O [compound 51] (H-DCLGFMRKCIPDNDKCCRPKLVCSRTHKWCKYVF-NH2; disulfide 2-17, 9-23, 16-30)",IC50,hNav1.3; Use,0.33 µM
same,IC50,hNav1.7; Use,0.61 µM
same,IC50,hNav1.5; Use,19 µM
"CC[C@H](C)[C@@H]1NC(=O)[C@@H]2CSSC[C@@H]3NC(=O)[C@H](C(C)C)NC(=O)[C@H](CC(C)C)NC(=O)[C@H](CC(N)=O)NC(=O)[C@@H]4CCCN4C(=O)[C@H](CCCNC(=N)N)NC(=O)[C@H](CSSC[C@H](NC(=O)[C@@H](N)CC(=O)O)C(=O)N[C@@H](CC(C)C)C(=O)NCC(=O)N[C@@H](Cc4ccccc4)C(=O)N[C@@H](CCSC)C(=O)N[C@@H](CCCNC(=N)N)C(=O)N[C@@H](CCCCN)C(=O)N2)NC(=O)[C@H](CSSC[C@@H](C(=O)N[C@@H](CCCCN)C(=O)N[C@@H](Cc2ccc(O)cc2)C(=O)N[C@H](C(=O)N[C@@H](Cc2ccccc2)C(N)=O)c2ccccc2)NC(=O)[C@H](Cc2c[nH]c4ccccc24)NC(=O)[C@H](CCCCN)NC(=O)[C@H](Cc2c[nH]cn2)NC(=O)[C@H]([C@@H](C)O)NC(=O)[C@H](CCCNC(=N)N)NC(=O)[C@H](CO)NC3=O)NC(=O)[C@H](CCCCN)NC(=O)[C@H](CC(=O)O)NC(=O)[C@H](CC(N)=O)NC(=O)[C@H](CC(=O)O)NC(=O)[C@@H]2CCCN2C1=O [compound 393] (H-DCLGFMRKCIPDNDKCCRPNLVCSRTHKWCKY[Phg]F-NH2; disulfide 2-17, 9-23, 16-30)",IC50,"hNav1.3; Table 26, use, […]",0.04 µM
same,IC50,"hNav1.7; Table 26, use, […]",0.02 µM
same,IC50,"hNav1.5; Table 26, use, […]",7.63 µM
"CC[C@H](C)[C@@H]1NC(=O)[C@@H]2CSSC[C@@H]3NC(=O)[C@H](C(C)C)NC(=O)[C@H](CC(C)C)NC(=O)[C@H](CC(N)=O)NC(=O)[C@@H]4CCCN4C(=O)[C@H](CCCNC(=N)N)NC(=O)[C@H](CSSC[C@H](NC(=O)[C@@H](N)CC(=O)O)C(=O)N[C@@H](CC(C)C)C(=O)NCC(=O)N[C@@H](Cc4ccc(I)cc4)C(=O)N[C@@H](Cc4ccccc4)C(=O)N[C@@H](CCCNC(=N)N)C(=O)N[C@@H](CCCCN)C(=O)N2)NC(=O)[C@H](CSSC[C@@H](C(=O)N[C@@H](CCCCN)C(=O)N[C@@H](Cc2ccc(O)cc2)C(=O)N[C@H](C(=O)N[C@@H](Cc2ccccc2)C(N)=O)C(C)C)NC(=O)[C@H](Cc2c[nH]c4ccccc24)NC(=O)[C@H](CCCCN)NC(=O)[C@H](Cc2c[nH]cn2)NC(=O)[C@H]([C@@H](C)O)NC(=O)[C@H](CCCNC(=N)N)NC(=O)[C@H](CO)NC3=O)NC(=O)[C@H](CCCCN)NC(=O)[C@H](CC(=O)O)NC(=O)[C@H](CC(N)=O)NC(=O)[C@H](CC(=O)O)NC(=O)[C@@H]2CCCN2C1=O [compound 622] (H-DCLG[Phe(4-I)]FRKCIPDNDKCCRPNLVCSRTHKWCKYVF-NH2; disulfide 2-17, 9-23, 16-30)",IC50,"hNav1.3; use-dependent protocol, hNav1.3",21 µM
same,IC50,"hNav1.7; use-dependent protocol, hNav1.7",12.3 µM
same,IC50,"hNav1.5; use-dependent protocol, hNav1.5",12.9 µM
"CC[C@H](C)[C@@H]1NC(=O)[C@@H]2CSSC[C@@H]3NC(=O)[C@H](C(C)C)NC(=O)[C@H](CC(C)C)NC(=O)[C@H](CC(N)=O)NC(=O)[C@@H]4CCCN4C(=O)[C@H](CCCNC(=N)N)NC(=O)[C@H](CSSC[C@H](NC(=O)[C@@H](N)CC(=O)O)C(=O)N[C@@H](CC(C)C)C(=O)NCC(=O)N[C@@H](C)C(=O)N[C@@H](CCSC)C(=O)N[C@@H](CCC(=O)O)C(=O)N[C@@H](CCCCN)C(=O)N2)NC(=O)[C@H](CSSC[C@@H](C(=O)N[C@@H](CCCCN)C(=O)N[C@@H](Cc2ccc(O)cc2)C(=O)N[C@H](C(=O)N[C@@H](Cc2ccccc2)C(N)=O)C(C)C)NC(=O)[C@H](Cc2c[nH]c4ccccc24)NC(=O)[C@H](CCCCN)NC(=O)[C@H](Cc2c[nH]cn2)NC(=O)[C@H]([C@@H](C)O)NC(=O)[C@H](CCCNC(=N)N)NC(=O)[C@H](CO)NC3=O)NC(=O)[C@H](CCCCN)NC(=O)[C@H](CC(=O)O)NC(=O)[C@H](CC(N)=O)NC(=O)[C@H](CC(=O)O)NC(=O)[C@@H]2CCCN2C1=O [compound 436] (H-DCLGAMEKCIPDNDKCCRPNLVCSRTHKWCKYVF-NH2; disulfide 2-17, 9-23, 16-30)",IC50,"hNav1.3; use-dependent block, hNav1.3",> 5 µM
same,IC50,"hNav1.7; use-dependent block, hNav1.7",> 5 µM
same,IC50,"hNav1.5; use-dependent block, hNav1.5",> 5 µM
"CC[C@H](C)[C@H](NC(=O)[C@H](CCC(=O)O)NC(=O)[C@H](Cc1ccc(O)cc1)NC(=O)[C@H](CCCCN)NC(=O)[C@@H]1CSSC[C@@H]2NC(=O)[C@H](CCCCN)NC(=O)[C@H](CC(=O)O)NC(=O)[C@H](CC(N)=O)NC(=O)[C@H](CC(=O)O)NC(=O)[C@@H]3CCCN3C(=O)[C@H](CO)NC(=O)[C@@H]3CSSC[C@H](NC(=O)[C@H](C(C)C)NC(=O)[C@H](CC(C)C)NC(=O)[C@H](CC(N)=O)NC(=O)[C@@H]4CCCN4C(=O)[C@H](CCCNC(=N)N)NC(=O)[C@H](CSSC[C@H](NC(=O)[C@@H](N)CC(=O)O)C(=O)N[C@@H](CC(C)C)C(=O)NCC(=O)N[C@@H](Cc4ccccc4)C(=O)N[C@@H](CCSC)C(=O)N[C@@H](CCCNC(=N)N)C(=O)N[C@@H](CCCCN)C(=O)N3)NC2=O)C(=O)N[C@@H](CO)C(=O)N[C@@H](CCCNC(=N)N)C(=O)N[C@@H](CCCCN)C(=O)N[C@@H](Cc2c[nH]cn2)C(=O)N[C@@H](CCCCN)C(=O)N[C@@H](Cc2c[nH]c3ccccc23)C(=O)N1)C(N)=O [SEQ ID NO: 467] (H-DCLGFMRKCSPDNDKCCRPNLVCSRKHKWCKYEI-NH2; disulfide 2-17, 9-23, 16-30)",IC50,hNav1.3; [1],1.15 µM
same,IC50,hNav1.7; [1],4.34 µM
same,IC50,hNav1.5; [1],7.21 µM
CC[C@H](C)[C@@H]1NC(=O)[C@@H]2CSSC[C@@H]3NC(=O)[C@H](C(C)C)NC(=O)[C@H](CC(C)C)NC(=O)[C@H](CC(N)=O)NC(=O)[C@@H]4CCCN4C(=O)[C@H](CCCNC(=N)N)NC(=O)[C@H](CSSC[C@H](NC(=O)[C@@H](N)CC(=O)O)C(=O)N[C@@H](CC(C)C)C(=O)NCC(=O)N[C@@H](C)C(=O)N[C@@H](Cc4ccccc4)C(=O)N[C@@H](CCCNC(=N)N)C(=O)N[C@@H](CCCCN)C(=O)N2)NC(=O)[C@H](CSSC[C@@H](C(=O)N[C@@H](CCCCN)C(=O)N[C@@H](Cc2ccc(O)cc2)C(=O)N[C@H](C(=O)N[C@@H](Cc2ccccc2)C(=O)O)C(C)C)NC(=O)[C@H](Cc2c[nH]c4ccccc24)NC(=O)[C@H](CCCNC(=N)N)NC(=O)[C@H](Cc2c[nH]cn2)NC(=O)[C@H]([C@@H](C)O)NC(=O)[C@H](CCCNC(=N)N)NC(=O)[C@H](CO)NC3=O)NC(=O)[C@H](CCCCN)NC(=O)[C@H](CC(=O)O)NC(=O)[C@@H]2CCCN2C(=O)[C@H](CC(=O)O)NC(=O)[C@@H]2CCCN2C1=O [compound 846],IC50,"hNav1.3; use-dependent block, hNav1.3",2.9 µM
same,IC50,"hNav1.7; use-dependent block, hNav1.7",2.9 µM
same,IC50,"hNav1.5; use-dependent block, hNav1.5",> 5 µM
